Results published in patent US11052072B2, “Pyrazolo[4,3-C] quinoline derivatives for inhibition of β-glucuronidase” (Kaohsiung Medical University, priority 2015, dated 2021).
Structures can show the parent of a compound that is named as a salt.

Experiments:
[1] = target: E. coli β-glucuronidase (eβG) (Escherichia coli, UniProt P05804); experiment: Inhibition of purified recombinant eβG activity (pNPG substrate, OD420); type: biochemical; conditions: for remaining activity at 10 µM: read-out: Percent activity of E. coli-glucuronidase at 10 μM (%)
Sequence of E. coli β-glucuronidase (eβG) (P05804 whole entry): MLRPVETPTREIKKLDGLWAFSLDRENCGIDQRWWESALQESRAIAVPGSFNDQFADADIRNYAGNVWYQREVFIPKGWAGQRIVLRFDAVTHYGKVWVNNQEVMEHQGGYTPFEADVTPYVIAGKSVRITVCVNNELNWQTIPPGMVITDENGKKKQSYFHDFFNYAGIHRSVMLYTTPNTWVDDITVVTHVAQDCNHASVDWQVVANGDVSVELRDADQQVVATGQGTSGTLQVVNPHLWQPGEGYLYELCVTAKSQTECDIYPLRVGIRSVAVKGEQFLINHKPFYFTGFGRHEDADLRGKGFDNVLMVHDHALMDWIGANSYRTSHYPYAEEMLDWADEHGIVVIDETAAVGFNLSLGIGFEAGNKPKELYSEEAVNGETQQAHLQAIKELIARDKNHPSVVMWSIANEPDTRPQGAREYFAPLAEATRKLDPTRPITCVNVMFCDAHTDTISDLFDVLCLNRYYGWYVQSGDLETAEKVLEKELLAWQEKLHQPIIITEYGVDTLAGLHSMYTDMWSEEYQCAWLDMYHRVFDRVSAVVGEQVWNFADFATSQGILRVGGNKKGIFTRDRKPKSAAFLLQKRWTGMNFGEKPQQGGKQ
Experimental: (§1) The pyrazolo[4,3-c]quinoline derivatives were examined for their inhibition against eβG or hβG activity. Purified recombinant eβG or hβG proteins were incubated with serial dilution of the inhibitors, respectively. The βG activity was determined by color development of a βG substrate, pNPG. The hydrolysis product of pNPG, PNP was measured by OD420.

[2] = target: T1, human liver-glucuronidase (hβG) (Homo sapiens, UniProt P08236); experiment: Inhibition of purified recombinant hβG activity (pNPG substrate, OD420); type: biochemical; conditions: 10 μM, purified recombinant hβG, pNPG, means ± S.D. of at least three separate experiments; for remaining activity at 10 µM: read-out: Percent activity of human liver-glucuronidase at 10 μM (%)
T1 sequence (P08236 23-651): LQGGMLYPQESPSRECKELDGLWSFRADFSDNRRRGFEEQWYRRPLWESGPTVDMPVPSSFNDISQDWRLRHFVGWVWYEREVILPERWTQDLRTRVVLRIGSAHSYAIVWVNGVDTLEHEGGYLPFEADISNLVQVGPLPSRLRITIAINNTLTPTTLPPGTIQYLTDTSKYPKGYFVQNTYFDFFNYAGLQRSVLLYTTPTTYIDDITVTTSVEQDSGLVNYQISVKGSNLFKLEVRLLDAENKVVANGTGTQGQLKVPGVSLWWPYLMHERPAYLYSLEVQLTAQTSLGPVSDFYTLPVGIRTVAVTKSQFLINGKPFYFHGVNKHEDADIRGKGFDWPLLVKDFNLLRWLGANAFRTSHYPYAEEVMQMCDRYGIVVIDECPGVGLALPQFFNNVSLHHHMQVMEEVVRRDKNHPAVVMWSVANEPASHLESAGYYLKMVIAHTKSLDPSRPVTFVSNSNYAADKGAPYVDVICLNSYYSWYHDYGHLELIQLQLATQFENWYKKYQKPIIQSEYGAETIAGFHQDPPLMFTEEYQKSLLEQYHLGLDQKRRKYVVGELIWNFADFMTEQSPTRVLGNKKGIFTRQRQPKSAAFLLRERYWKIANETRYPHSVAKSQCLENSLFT
Experimental: as §1

Row | Compound | remaining activity at 10 µM [1] | remaining activity at 10 µM [2] | further results
1 | Nc1n[nH]c2c1c(Nc1cccc(O)c1)nc1ccccc12 [Compound 24, 3-Amino-4-(3-hydroxyphenylamino)-1H-pyrazolo[4,3-c]quinoline] | 13.5 ± 0.71% | 105 ± 1.41% | –
2 | CCOc1ccc(NC(=S)N(CCO)Cc2cc3cc(C)cc(C)c3[nH]c2=O)cc1 [βG-Inh, 1-((6,8-Dimethyl-2-oxo-1,2-dihydroquinolin-3-yl)methyl)-3-(4-ethoxyphenyl)-1-(2-hydroxyethyl) thiourea, reference compound] | 3 ± 1% | – | –
3 | Nc1n[nH]c2c1c(Nc1cccc(O)c1)nc1ccccc12 (as salt: salt) [Compound 24, 3-Amino-4-(3-hydroxyphenylamino)-1H-pyrazolo[4,3-c]quinoline] | – | – | melting point: 319 to 321 °C
4 | CC(=O)c1ccc(Nc2nc3ccccc3c3[nH]nc(N)c23)cc1 [Compound 23, 3-Amino-4-(4-acetylphenylamino)-1H-pyrazolo[4,3-c]quinoline] | 3 ± 1% | 104 ± 1.41% | –
5 | Cc1ccc(Nc2nc3ccc(Br)cc3c3[nH]nc(N)c23)cc1 [Compound 13, S-Bromo-N^4-(p-tolyl)-1H-pyrazolo[4,3-c]quinoline-3,4-diamine] | – | – | Percent activity of E. coli-glucuronidase at 10 μM (%) ([1]; 10 μM, purified recombinant eβG, pNPG, means ± S.D. of at least three separate experiments): 4 ± 1%; Percent activity of human liver-glucuronidase at 10 μM (%) [2]: 80.21 ± 2.14%
6 | CSc1ccc(Nc2nc3ccccc3c3[nH]nc(N)c23)cc1 (as salt: salt) [Compound 20, 3-Amino-4-(4-methylthiophenylamino)-1H-pyrazolo[4,3-c]quinoline] | – | – | melting point: 269 to 271 °C
7 | Cc1cccc(Nc2nc3ccccc3c3[nH]nc(N)c23)c1 [Compound 25, N^4-(m-Tolyl)-1H-pyrazolo[4,3-c]quinoline-3,4-diamine] | 69.9 ± 0.02% | 102 ± 2.08% | –
8 | Nc1n[nH]c2c1c(Nc1ccc([N+](=O)[O-])cc1)nc1ccccc12 (as salt: salt) [Compound 21, 3-Amino-4-(4-nitrophenylamino)-1H-pyrazolo[4,3-c]quinoline] | – | – | melting point: 303 to 305 °C
9 | Cc1ccc(Nc2nc3ccc(Cl)cc3c3[nH]nc(N)c23)cc1 [Compound 11, 8-Chloro-N^4-(p-tolyl)-1H-pyrazolo[4,3-c]quinoline-3,4-diamine] | 3 ± 1% | 80.5 ± 2.12% | –
10 | CC(=O)c1ccc(Nc2nc3ccccc3c3[nH]nc(N)c23)cc1 (as salt: salt) [Compound 23, 3-Amino-4-(4-acetylphenylamino)-1H-pyrazolo[4,3-c]quinoline] | – | – | melting point: 249 to 251 °C
11 | O=C(Nc1ccccc1)Nc1n[nH]c2c1c(=O)[nH]c1ccccc12 [Compound 34, 1-(4-oxo-4,5-dihydro-1H-pyrazolo[4,3-c]quinolin-3-yl)-3-phenylurea] | 86 ± 1% | 82 ± 1.41% | –
12 | Cc1ccc(Nc2nc3cc(F)ccc3c3[nH]nc(N)c23)cc1 [Compound 9, 7-Fluoro-N^4-(p-tolyl)-1H-pyrazolo[4,3-c]quinoline-3,4-diamine] | 4 ± 1% | 81.5 ± 0.71% | –
13 | Nc1n[nH]c2c1c(Nc1ccc(Cl)cc1)nc1ccc(Cl)cc12 [Compound 10, 8-Chloro-N^4-(4-chlorophenyl)-1H-pyrazolo[4,3-c]quinoline-3,4-diamine] | 3 ± 1% | 77 ± 1.41% | –
14 | Nc1n[nH]c2c1c(Nc1ccc([N+](=O)[O-])cc1)nc1ccccc12 [Compound 21, 3-Amino-4-(4-nitrophenylamino)-1H-pyrazolo[4,3-c]quinoline] | 46.5 ± 4.95% | 90.86 ± 0.32% | –
15 | Nc1n[nH]c2c1c(Nc1ccc(C(=O)O)cc1)nc1ccccc12 [Compound 22, 4-(3-Amino-1H-pyrazolo[4,3-c]quinolin-4-ylamino)benzoic acid] | 15.5 ± 1.71% | 95 ± 4.24% | –
16 | CSc1ccc(Nc2nc3ccccc3c3[nH]nc(N)c23)cc1 [Compound 20, 3-Amino-4-(4-methylthiophenylamino)-1H-pyrazolo[4,3-c]quinoline] | 5 ± 1.41% | 108 ± 3.54% | –
